# Assay results published in patent US20230187019A1, “METHOD FOR DETERMINING A DRUG COMBINATION VIA A BLOCKING MODEL OF A MULTI-SITE-TARGETED PROTEIN AND APPLICATIONS THEREOF” (National Tsing Hua University, priority 2021, published 2023).
# Where “and” joins values, the source holds several entries; their conditions need not be identical. Equal values may be shown once. Read-outs that look alike come from different tables or passages of the source.
# Assays:
# [1] = biological target: T1, ATG4B (Homo sapiens, UniProt Q9Y4P1); assay: In vitro cleavage assay of ATG4B catalytic activity (western blot of tagged LC3B); type: biochemical
# T1 sequence (Q9Y4P1 whole entry): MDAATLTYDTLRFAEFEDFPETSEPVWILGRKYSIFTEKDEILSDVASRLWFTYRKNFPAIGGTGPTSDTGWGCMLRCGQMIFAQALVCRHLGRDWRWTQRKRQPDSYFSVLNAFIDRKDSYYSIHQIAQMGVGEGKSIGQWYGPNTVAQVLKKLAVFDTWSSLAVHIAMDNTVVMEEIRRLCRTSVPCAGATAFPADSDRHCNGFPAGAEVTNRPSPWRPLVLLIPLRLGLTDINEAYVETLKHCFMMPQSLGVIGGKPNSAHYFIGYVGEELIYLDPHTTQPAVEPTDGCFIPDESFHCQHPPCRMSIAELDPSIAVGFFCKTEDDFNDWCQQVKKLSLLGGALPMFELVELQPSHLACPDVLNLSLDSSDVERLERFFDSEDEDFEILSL
# Description: The reagents were incubated at 37° C. for 30 minutes and then subjected to western blotting. The intensity of the band in the gel was calculated by using Image Studio Lite from LI-COR Biosciences or ImageJ.
# The full-length LC3B fusion protein was used as the negative control and as the positive control when also incubated with ATG4B (FIG. 22A). […] A peptide that can inhibit ATG4B activity will weaken the fluorescence signal produced by the cleaved PLA2.
# [2] = system: shCtrl/HCT116; assay: Cell viability assay on shCtrl/HCT116 (control strain); type: cell-based, human; conditions: for reduced cell viability: HCT116 (FIG. 13A, shCtrl/HCT116)
# [3] = system: shATG4B/HCT116; assay: Cell viability assay on shATG4B/HCT116 (ATG4B silencing strain); type: cell-based, human
# [4] = system: LC3B-II; assay: Western blotting of LC3B-II in AK4.4 and AsPC-1 cells; type: cell-based; conditions: AK4.4 and AsPC-1, western blotting
# Description: Cells were seeded in a 12-well plate (10^5 cells/well) and cultured in serum-free medium (SFM) with different concentrations of drugs for six hours. The plate was then washed with phosphate-buffered saline (PBS), and cells were lysed with 100 μL radioimmunoprecipitation assay buffer (RIPA buffer) for each well. The cell extracts were mixed with 4×dye (900 μL of 4×Laemmli sample buffer+100 μL of 2-mercaptoethanol) at 95° C. for ten minutes and separated by sodium dodecyl sulfate-polyacrylamide gel electrophoresis (SDS-PAGE). The fractions were then transferred to a polyvinylidene fluoride (PVDF) membrane and immersed in 5% nonfat milk at room temperature for one hour. Afterward, the transfer membrane was incubated with protein-specific primary antibodies at 4° C. overnight, washed by PBST (0.1% Tween 20 in PBS), and then incubated with horseradish peroxidase (HRP)-conjugated secondary antibodies at room temperature for one hour. The blots washed by PBST were then detected by enhanced chemiluminescence (ECL) for the quantification of proteins.
# [5] = system: AK4.4 pancreatic ductal adenocarcinoma (PDAC) xenograft
# [6] = system: AK4.4; assay: Cell viability assay (MTT) on AK4.4; conditions: for IC50: Mus musculus
# Description: (§1) The cell viability was measured using the MTT assay or CellTiter-Glo Luminescent Cell Viability Assay. For MTT assay, mouse AK4.4 (1,000 cells/well) and human AsPC-1 (1,500 cells/well) cells were seeded in 96-well plates and cultured in serum-free medium (SFM) containing indicated concentrations of drugs for 48 hours. To measure the cell viability, 15 μL MTT (3-(4,5-dimethylthiazol-2-yl)-2,5-diphenyltetrazolium bromide, 5 mg/mL in PBS) was added in each well and kept at 37° C. for three hours. The precipitated crystals were then dissolved in 50 μL DMSO, and the absorbance at 570 nm was measured by Multiskan GO Microplate Spectrophotometer (Thermo Scientific, USA) to estimate the cell survival rate. To quantify the drug combination effect, the combination index was calculated when the cell viability was reduced by 50% using the following Equation (1):
# [7] = system: AsPC-1; assay: Cell viability assay (MTT) on AsPC-1
# Description: as §1
# [8] = biological target: T2, 3CL^pro (Severe acute respiratory syndrome coronavirus 2, UniProt P0DTD1); assay: FRET-based 3CL^pro enzyme activity assay; type: biochemical; conditions: single use, 3 to 90 μM
# T2 construct: A 3CL^pro (Cat. #78042-1) assay kit (BPS Bioscience, CA, USA); purchased BPS Bioscience 78042-1
# Description: The intensity of this fluorescence is proportional to the protease activity.
# Inhibition percentage is calculated by “1−(Itest−Isubstrate)/(Ipositive−Isubstrate),” where I represents the value of inhibition ability.
# The FRET (fluorescence resonance energy transfer)-based assay was designed for 3CL^pro activity assay and explained in FIG. 10. The 3CL^pro enzyme assay was developed in a 96-well black microplate with a total volume of 50 μL. 30 μL of 0.5 ng/μL enzyme in a reaction buffer was added into each well, followed by the addition of 10 μL substrate solution to a final concentration of 40 μM.
# [9] = system: HCT116; assay: Cell viability assay on HCT116; type: cell-based, human; conditions: 20 μM drug, normalized by blank control, three repeats
# [10] = biological target: T1, ATG4B; assay: ATG4B enzyme activity assay by S-tag-based immunoblotting; type: biochemical; conditions: read-out: inhibition of ATG4B catalysis
# Description: Protein expression and purification for the study of prediction of the allosteric sites in ATG4B Human ATG4B with N-terminal 6xHis-tag and human LC3B with both N-terminal 6xHis-tag and C-terminal S-tag were cloned into pETDuet-1 expression plasmids as previously described (Shu, C W et al., 2010, Autophagy 6, 936-947), subsequently transformed into E. coli BL21 (ECOS 21, Yeastern Biotech Co., FYE207-40VL). A single colony harboring the correctly in-frame inserted gene was inoculated into an overnight culture that was then diluted 100-fold in fresh Luria-Bertani broth with 50 μg/mL ampicillin for growing at 37° C. with 200 rpm agitation for 2 to 3 hours until the optical density of the culture at 600 nm reaches 0.4 (around 3×10^8 cells/mL). […]
# The expression cell culture was harvested by 12,000×g centrifugation at 4° C. for 20 minutes, and the cell pellets of 1 liter broth were resuspended in a 10 mL lysis buffer (50 mM Tris-HCl, pH 7.4, 300 mM NaCl, 20 mM imidazole). […] The protein purity was verified >90% by Coomassie blue staining on SDS-PAGE, and the quantity was measured by bicinchoninic acid assay.
# ATG4B enzyme activity assay was analyzed by immunoblotting. […] The intensities of remaining substrate LC3B after enzymatic cleavage were quantified by the software ImageJ.
# [11] = system: MDA-MB-468; assay: Cell viability assay by WST-1 on MDA-MB-468; type: cell-based, human; conditions: 10 μM, two days, breast MDA-MB-468
# Description: Three tumor cells were tested, i.e., HCT116 (colorectal cancer), AsPC-1 (pancreatic cancer) and MDA-MB-468 cell lines (breast cancer). Human colorectal carcinoma cell line HCT116 (catalog number: BCRC 60349, Bioresource Collection and Research Center (BCRC), Hsinchu City, Taiwan) was maintained in the culture medium: McCoy's 5a medium (catalog number: 16-600-082, Gibco, Waltham, Mass.) with 1.5 mM L-glutamine (Gibco) and 10% fetal bovine serum (FBS, Gibco). Human pancreatic adenocarcinoma cell line AsPC-1 (catalog number: BCRC 60494, BCRC) was maintained in the culture medium: RPMI 1640 medium (catalog number: 11875168, Gibco) with 2 mM L-glutamine, 4.5 g/L glucose (Gibco), 10 mM HEPES (Gibco), 1 mM sodium pyruvate (Gibco) and 10% fetal bovine serum. […]
# For cell viability assay, tumor cells (1×10^5/mL) were suspended in the medium without testing drugs and then inoculated in 96-well plates (100 μL per well) for attachment first. […] Cell proliferation was quantified by using a Premix WST-1 Cell Proliferation Assay System (Takara, Japan). According to the manufacturer's protocol, cell proliferation was determined by measuring the optical density (OD) after the reaction for 3 hours by recording the absorbance at 450 nm using a plate reader (Multiskan Go, Thermo Fisher Scientific).
# [12] = biological target: LC3B substrate of the ATG4B activity reporter assays (cleavage releases PLA2), Q9GZQ8; assay: cell-based or functional assay
# [13] = Vb concentration for 50% reduction of viability in combination with 0.50 μM Mx
molecule,measurement,setting,value
CCC1=C[C@@H]2CN(C1)Cc1c([nH]c3ccccc13)[C@@](C(=O)OC)(c1cc3c(cc1OC)N(C)[C@H]1[C@@](O)(C(=O)OC)[C@H](OC(C)=O)[C@]4(CC)C=CCN5CC[C@]31[C@@H]54)C2 [Vinorelbine],reduction of the ATG4B activity on LC3B catalysis,"[1]; 10 μM vinorelbine, FIG. 4B",42%
same,inhibition at 10 µM,[1]; read-out: inhibition of ATG4B catalysis,58%
same,reduced cell viability,[2]; 4 μM,55%
same,reduced cell viability,[2]; 10 μM,63%
same,reduced cell viability,[2]; 20 μM,68%
same,reduced cell viability,[3],37% and 43% and 54%
same,abundance of LC3B-II in cells,[4],accumulation of LC3B-II
same,tumor size compared to the control group,"[5]; 20 mg/kg, day 16",70%
same,tumor size measured on day 16 versus control group,"[5]; dose of 10 mg/kg, days 3, 5, 7, 10, 12, 14",less than half of the tumor size in the control group
same,reduced cell viability,"[6]; AK4.4, 5 μM",62%
same,reduced cell viability,"[6]; AK4.4, 10 μM",51%
same,reduced cell viability,"[6]; AK4.4, 20 μM",24%
same,IC50,"[6]; read-out: IC50, Vb, vinorelbine alone, AK4.4 (Table 8)",10.4 µM
same,IC50,"[6]; read-out: IC50, Vb, vinorelbine alone, AK4.4 (Table 14)",7.19 µM
same,"CVb, 50",[6]; [13],3.91 µM
same,reduced cell viability,"[7]; AsPC-1, 5 μM",68%
same,reduced cell viability,"[7]; AsPC-1, 10 μM",61%
same,reduced cell viability,"[7]; AsPC-1, 20 μM",46%
same,IC50,"[7]; Homo sapiens, ASPC1, read-out: IC50, Vb, vinorelbine alone, AsPC-1 (Table 9)",17.4 µM
same,IC50,"[7]; Homo sapiens, ASPC1, read-out: IC50, Vb, vinorelbine alone, AsPC-1 (Table 15)",33.1 µM
same,viability at 5 µM,"[7]; Homo sapiens, ASPC1, read-out: cell viability, AsPC-1, 5 μM vinorelbine alone",68%
same,viability at 10 µM,"[7]; Homo sapiens, ASPC1, read-out: cell viability, AsPC-1, 10 μM vinorelbine alone",61%
same,viability at 20 µM,"[7]; Homo sapiens, ASPC1, read-out: cell viability, AsPC-1, 20 μM vinorelbine alone",46%
same,"CVb, 50",[7]; [13],18.94 µM
same,"CVb, 50",[7]; Vb concentration for 50% reduction of viability in combination with 1.00 μM Mx,9.05 µM
CC(C)C[C@@H](N)C(=O)N[C@H]1C(=O)N[C@@H](CC(N)=O)C(=O)N[C@H]2C(=O)N[C@H]3C(=O)N[C@H](C(=O)N[C@H](C(=O)O)c4cc(O)cc(O)c4-c4cc3ccc4O)[C@H](O)c3ccc(c(Cl)c3)Oc3cc2cc(c3O[C@@H]2O[C@H](CO)[C@@H](O)[C@H](O)[C@H]2O[C@H]2C[C@](C)(N)[C@H](O)[C@H](C)O2)Oc2ccc(cc2Cl)[C@H]1O [norvancomycin],inhibition of 3CL^pro,[8],20 to 30%
CO/N=C1\C[C@]2(C[C@@H]3C[C@@H](C/C=C(\C)C[C@@H](C)/C=C/C=C4\CO[C@@H]5[C@H](O)C(C)=C[C@@H](C(=O)O3)[C@]45O)O2)O[C@H](/C(C)=C/C(C)C)[C@H]1C [Moxidectin],inhibition at 10 µM,"[1]; 10 μM, read-out: inhibition on ATG4B's catalytic activity",38%
same,viability at 20 µM,"[9]; Homo sapiens, HCT-116, remaining viability, read-out: HCT116 Cell Viability",2%
same,HCT116 Cell Viability,[9]; remaining viability,1.7 ± 0.1%
same,viability at 20 µM,"[2]; Homo sapiens, HCT-116, remaining viability, 20 μM drug, C strain, read-out: shCtrl/HCT116 Cell Viability",1%
same,viability at 20 µM,"[3]; Homo sapiens, HCT-116, remaining viability, 20 μM drug, S strain, read-out: shATG4B/HCT116 Cell Viability",1%
same,shATG4B/HCT116 Cell Viability,"[3]; remaining viability, 20 μM drug, S strain",0.9 ± 0.1%
same,inhibition at 10 µM,[10]; 10 μM,36%
same,inhibition at 20 µM,[10]; 20 μM,> 80%
same,IC50,"[6]; read-out: IC50, Mx, moxidectin alone, AK4.4 (Table 12)",1.07 µM
same,IC50,"[6]; read-out: IC50, Mx, moxidectin alone, AK4.4 (Table 14)",0.87 µM
same,"CMx, 50","[6]; Mx concentration in combination with Tc for a 50% reduction of the cell viability, listed as Mx",0.50 µM and 1.00 µM
same,"CMx, 50",[6]; Mx concentration in combination with Vb for a 50% reduction of the cell viability,0.50 µM
same,viability at 20 µM,"[7]; Homo sapiens, ASPC1, read-out: AsPC-1 Cell Viability, remaining viability, 20 μM drug, normalized by blank control, three repeats",8%
same,IC50,"[7]; Homo sapiens, ASPC1, read-out: IC50, Mx, moxidectin alone, AsPC-1 (Table 13)",1.38 µM
same,IC50,"[7]; Homo sapiens, ASPC1, read-out: IC50, Mx, moxidectin alone, AsPC-1 (Table 15)",1.24 µM
same,"CMx, 50","[7]; Mx concentration in combination with Vb for a 50% reduction of the cell viability, listed as Mx",0.50 µM and 1.00 µM
same,AsPC-1 Cell Viability,"[7]; remaining viability, 20 μM drug, normalized by blank control, three repeats",7.8 ± 0.8%
CC1=C(/C=C/C(C)=C/C=C/C(C)=C/C(=O)Nc2ccc(O)cc2)C(C)(C)CCC1 [Fenretinide],suppression of tumor cell growth,[11],seems to be a better breast cancer inhibitor
Ac-YDTLRFAEF-NH2 [N-term-9 (Ac-…-NH2)],inhibition to ATG4B activity (ATG4B activity reporter assays),[12],25%
